In PMC12310481, “Sequence, characterization and pharmacological analyses of the adipokinetic hormone receptor in the stick insect, Carausius morosus” (Frontiers in Endocrinology, 2025):
Several values for one entry are separate records, joined by “and”; a condition that tells them apart may be missing. Equal entries are not always repeated. Non-standard residues stand in square brackets, D forms with d. Residues, ends and D or L forms follow the SMILES beside them. pGlu = O=C1CC[C@@H](C(=O)O)N1

What was measured:
[1] = test system: Carausius morosus; conditions: in vivo bioassay, stick insect; cited from earlier work
From the text: C. morusus produces decapeptide AKHs that function optimally via the Carmo-AKHR. Two shorter bioanalogs with high identity to Carmo-HrTH were available for testing in the receptor activation assay: Triin-AKH, an amidated nonapeptide that ends in Gly^9 and the amidated octapeptide, Peram-CAH-II that ends in Trp^8. These peptides produced receptor activation curves with EC50 values similar to those of the endogenous AKH peptides ( Table 2 ). Taken on its own, this may indicate that the C-terminal amino acids of Carmo-HrTH (thus Thr^10 and Gly^9) are not critical for activation of Carmo-AKHR, and ... || Replacing the aromatic amino acids, Phe^4 or Trp^8 that are iconic for most natural members of the AKH family, with a nonpolar amino acid like Ala, completely abolished receptor activation in the current in vitro study. Earlier in vivo investigations on L. migratoria ([58]), as well as AKH/RPCH ligand-receptor model studies on S. gregaria and D. pulex made it clear that these two aromatic residues are critical for receptor binding ([55], [56]). […] Clearly, this position in the AKH ligand appear ...

[2] = test system: Carausius morosus AKH receptor (Carmo-AKHR); experiment: Calcium bioluminescence (aequorin) reporter assay, CHO-K1 cells stably expressing Carmo-AKHR; format: cell-based; conditions: for EC50: CHO-K1 stably expressing Carmo-AKHR, transiently aequorin, luminescence measured 20 s, from dose-response activation curves, 3 to 4 independent biological replicates, normalized to ATP maximum, read-out: EC50 value; for Fold-reduction in activity (receptor activation relative to Carmo-HrTH-II): ratio of EC50 relative to Carmo-HrTH-II
Method: Functional activation of Carmo-AKHR was carried out by following mammalian cell culture procedures as previously described ([20], [29]) with the following modifications. […] At 24 h post-transfection, cells were selected in DMEM:F12 media containing 10% heat-inactivated fetal bovine serum (Wisent, St. Bruno, QC), 1x antimycotic-antibiotic and 600 μg/mL geneticin (G418) until clonal recombinant cells were evident in transfected cells while no live cells were present in non-transfected CHO-K1 cells (control). Individual clonal recombinant colonies were seeded into separate wells of a 96 well cell-culture dish (Sarstedt Inc., Montreal, QC) and grown to confluence while maintaining geneticin selection. To identify clonal recombinant lines with optimal Carmo-AKHR activity yielding the greatest signal-to-noise ratio, individual clonal recombinant lines were assayed in the bioluminescence reporter assay as described previously ([30]). […] The recombinant cell line showing the optimal luminescent response with greatest signal-to-noise ratio was expanded for preparation of cryo-stocks and subsequent detailed investigation of receptor specificity. […] Bruno, QC), 250 μg/mL Geneticin (MilliporeSigma Canada Ltd., Oakville, ON) and 1X antimycotic-antibiotic (ThermoFisher Scientific, Whitby, ON). […] Transfection was completed with PolyJetTM DNA In Vitro Transfection Reagent (FroggaBio, Toronto, ON) following manufacturer recommendations for transfection of adherent cells. At 48 hours post-transfection, cells were detached from culture flasks using Dulbecco's PBS (Wisent, St. Bruno, QC) containing 5 mM Ethylenediaminetetraacetic acid (EDTA) and were prepared for the functional assay as previously described ([30]). […] Immediately after injection of the cells into each well, luminescence was measured for 20 s using a Synergy 2 Multi-Mode Microplate Reader (BioTek, Winooski, VT, USA). […] Data were analyzed using a one-way or two-way ANOVA and Tukey's multiple comparisons post-hoc test, with differences between treatments considered significant if p<0.05.

[3] = test system: Carausius morosus AKH receptor (Carmo-AKHR); format: cell-based; conditions: transient Carmo-AKHR, co-expressing murine promiscuous G protein
[4] = test system: endogenously expressed purinoceptors; experiment: ATP positive control in the bioluminescence assay; format: cell-based, Chinese hamster; conditions: 50 μM ATP
Method: Synthetic peptide stocks of naturally-occurring AKH-related peptides [corazonin, adipokinetic hormone corazonin-like peptide (ACP)], alanine-substituted analogs of Carmo-HrTH-II, natural C. morosus AKH peptides, and several AKHs from other arthropod species in synthetic form were used for preparation of serial dilutions all of which were prepared in assay media (DMEM-F12 media containing 0.1% bovine serum albumin, 1X antimycotic-antibiotic) and loaded in triplicate or quadruplicate into 96-well white luminescence plates (Greiner Bio-One, Germany). Cells stably expressing Carmo-AKHR and transiently expressing aequorin were loaded with an automated injector unit into each individual well containing different test compounds at various concentrations, including assay media alone (negative control wells) and 50 μM ATP (positive control wells) acting on endogenously expressed purinoceptors ([34], [35]). Immediately after injection of the cells into each well, luminescence was measured for 20 s using a Synergy 2 Multi-Mode Microplate Reader (BioTek, Winooski, VT, USA). […] Data were analyzed using a one-way or two-way ANOVA and Tukey’s multiple comparisons post-hoc test, with differences between treatments considered significant if p<0.05.

| Structure (SMILES) | Hypertrehalosemic effect in vivo (in words) [1] | EC50 [2] [µM] | Fold-reduction in activity (receptor activation relative to Carmo-HrTH-II) [2] | Luminescence relative to assay media (BSA) alone [3] | Maximal luminescent response [4] |
| --- | --- | --- | --- | --- | --- |
| CC(C)C[C@H](NC(=O)[C@@H]1CCC(=O)N1)C(=O)N[C@@H](CC(N)=O)C(=O)N[C@@H](Cc1ccccc1)C(=O)N[C@H](C(=O)N1CCC[C@H]1C(=O)N[C@@H](CC(N)=O)C(=O)N[C@@H](Cc1c[nH]c2ccccc12)C(=O)NCC(=O)N[C@@H](CO)C(N)=O)[C@@H](C)O [Phymo-AKH] ([pGlu]LNFTPNWGS-NH2) | absence of function in vivo | 5.05 | 68.66 fold | – | – |
| CC(C)C[C@H](NC(=O)[C@@H]1CCC(=O)N1)C(=O)N[C@H](C(=O)N[C@@H](Cc1ccccc1)C(=O)N[C@H](C(=O)N1CCC[C@H]1C(=O)N[C@@H](CC(N)=O)C(=O)N[C@@H](Cc1c[nH]c2ccccc12)C(N)=O)[C@@H](C)O)[C@@H](C)O [Peram-CAH-II] ([pGlu]LTFTPNW-NH2) | only about a third of what the native decapeptide achieved | 0.388 | 5 fold and 5.28 fold | – | – |
| CC(C)C[C@H](NC(=O)[C@@H]1CCC(=O)N1)C(=O)N[C@H](C(=O)N[C@@H](Cc1ccccc1)C(=O)N[C@H](C(=O)N1CCC[C@H]1C(=O)N[C@@H](CC(N)=O)C(=O)N[C@@H](Cc1c[nH]c2ccccc12)C(=O)NCC(=O)N[C@@H](CO)C(N)=O)[C@@H](C)O)[C@@H](C)O [Phyle-CC] ([pGlu]LTFTPNWGS-NH2) | not at all (in vivo) affected | 0.018 | 0.24 fold | – | – |
| CC(C)C[C@H](NC(=O)[C@@H]1CCC(=O)N1)C(=O)N[C@H](C(=O)N[C@@H](Cc1ccccc1)C(=O)N[C@H](C(=O)N1CCC[C@H]1C(=O)N[C@@H](CO)C(=O)N[C@@H](Cc1c[nH]c2ccccc12)C(N)=O)[C@@H](C)O)[C@@H](C)O [Aedae-AKH] ([pGlu]LTFTPSW-NH2) | – | 1.03 | 14 fold and 14.00 fold | ~ 3 fold | – |
| CC(C)C[C@H](NC(=O)[C@@H]1CCC(=O)N1)C(=O)N[C@@H](CC(N)=O)C(=O)N[C@@H](Cc1ccccc1)C(=O)N[C@H](C(=O)N1CCC[C@H]1C(=O)N[C@@H](CC(N)=O)C(=O)N[C@@H](Cc1c[nH]c2ccccc12)C(=O)NCC(=O)N[C@H](C(N)=O)[C@@H](C)O)[C@@H](C)O [Locmi-AKH-I] ([pGlu]LNFTPNWGT-NH2) | biological function is impaired | 4.14 | – | – | – |
| Nc1ncnc2c1ncn2[C@@H]1O[C@H](COP(=O)(O)OP(=O)(O)OP(=O)(O)O)[C@@H](O)[C@H]1O [ATP] | – | – | – | – | about 12 000 |
